Data reported in patent US20150111864A1, “CRYSTALLINE FORM OF A BETA-LACTAMASE INHIBITOR” (Cubist Pharmaceuticals, Inc., priority 2013, published 2015).

How the values were obtained:
[1] = system: Pae.2863 (AmpC de-repress, clinical); experiment: Standard BLI Potentiation MIC Assay in Combination with Ceftolozane; format: cell-based, Pseudomonas aeruginosa; settings: Pae.2863, AmpC de-repress, clinical; BLI at 4 μg/mL
Experimental: (§1) The experimental protocol was performed according to Clinical and Laboratory Standards Institute (CLSI) guidelines with modifications as described below (CLSI guidelines can be derived from the CLSI document M07-A9 published in January 2012: “Methods for Dilution Antimicrobial Susceptibility Tests for Bacteria That Grow Aerobically; Approved Standard-Ninth Edition”).
(§2) Frozen glycerol stocks of laboratory engineered, isogenic E. coli strains, which contain cloned β-lactamase expressing plasmids were used to streak for isolated colonies on rich, selective LB agar supplemented with 25 μg/mL tetracycline to maintain the plasmid. All strains were incubated at 37° C. for 18-24 hrs.
(§3) On the day of testing, primary cultures were started by scraping off 5-10 colonies from the TSAB plates containing clinical strains or the tetracycline supplemented LB plates containing engineered strains. The clinical strain material was suspended in ˜5 mL of cation adjusted Mueller Hinton Broth (CAMHB) in 14 mL culture tubes. The engineered strain material was suspended in CAMHB (supplemented with 25 μg/mL tetracycline) in 14 mL culture tubes. All strains were incubated at 37° C. with aeration (200 rpm) for ˜2 hrs until the optical density at 600 nm (OD600) was ≧0.1.
(§4) The two compound components of the assay were each diluted in CAMHB and added to the 96-well broth microdilution assay plates. 50 μL of the β-lactam was added to each well of the assay plate in 2-fold dilutions with final concentrations ranging from 128 to 0.13 μg/mL. 25 μL of the BLI compound was added to all wells in the broth microdilution plates at a final concentration of 4 μg/mL. Inoculum cultures were prepared by standardizing the primary cultures to OD600=0.1 and then adding 20 μL of the adjusted primary culture per 1 mL CAMHB for clinical strains or CAMHB (supplemented with tetracycline at 100 μg/mL) for engineered strains, so that the final inoculum density was ˜10^5 colony forming units per milliliter. Diluted inoculum cultures were used to inoculate 25 μL per well in 96-well broth microdilution assay plates. The final volume of each well was 100 μL and contained a β-lactam at different concentrations, a BLIcompound at 4 μg/mL concentration, the bacterial culture at an OD600 of approximately 0.001 and when necessary tetracycline at 25 μg/mL.
(§5) Plates were incubated for 18-20 hours at 37° C. with aeration (200 rpm). Following incubation, growth was confirmed visually placing plates over a viewing apparatus (stand with a mirror underneath) and then OD600 was measured using a SpectraMax 340PC384 plate reader (Molecular Devices, Sunnyvale, Calif.). Growth was defined as turbidity that could be detected with the naked eye or achieving minimum OD600 of 0.1. MIC values were defined as the lowest concentration producing no visible turbidity.

[2] = system: Pae.2885 (AmpC, clinical); experiment: as above; format: cell-based, Pseudomonas aeruginosa; settings: Pae.2885, AmpC, clinical; BLI at 4 μg/mL
Experimental: as §1, §2, §3, §4, §5

[3] = system: Pae.2757 (AmpC over-expn, clinical); experiment: as above; format: cell-based, Pseudomonas aeruginosa; settings: Pae.2757, AmpC over-expn, clinical; BLI at 4 μg/mL
Experimental: as §1, §2, §3, §4, §5

Cfr.568 (AmpC, clinical) = experiment: as above; format: cell-based, Citrobacter spp; settings: Cfr.568, AmpC, clinical; BLI at 4 μg/mL
Experimental: as §1, §2
(§6) On the day of testing, primary cultures were started by scraping off 5-10 colonies from the TSAB plates containing clinical strains or the tetracycline supplemented LB plates containing engineered strains. […]
as §5, with “MIC values were defined as the lowest concentration producing no visible turbidity.” left out

[4] = system: Eco isogenic strain expressing SHV-12; experiment: Synergy MIC (sMIC) assay; format: cell-based, Escherichia coli; settings: β-Lactam CXA-101 at 4 μg/mL; SHV-12, isogenic Eco
Experimental: (§7) The synergy MIC (sMIC) assay determines the concentration of the BLI required to potentiate the activity of a fixed concentration of a β-lactam antibiotic against β-lactamase producing bacterial strains. The experimental protocol was performed according to Clinical and Laboratory Standards Institute (CLSI) guidelines with modifications as described below (CLSI guidelines can be derived from the CLSI document M07-A9 published in January 2012: “Methods for Dilution Antimicrobial Susceptibility Tests for Bacteria That Grow Aerobically; Approved Standard-Ninth Edition”). The assay wa set-up by serially diluting the BLI across 11 of the 12 wells in each row of a 96-well broth microdilution assay plate, adding the β-lactam at a fixed concentration to all wells in the assay plate, inoculating the assay plate with bacterial strains, and determining the lowest concentration of BLI required to inhibit overnight bacterial growth.
as §2
(§8) On the day of testing, primary cultures were started by scraping off 5-10 colonies from the TSAB plates containing clinical strains or the tetracycline supplemented LB plates containing engineered strains. The clinical strain material was suspended in ˜5 mL of cation adjusted Mueller Hinton Broth (CAMHB) in 14 mL culture tubes. The engineered strain material was suspended in CAMHB (supplemented with tetracycline at 25 μg/mL) in 14 mL culture tubes. All strains were incubated at 37° C. with aeration (200 rpm) for ≧2 hrs until the OD600 was ≧0.1.
(§9) The two compound components of the assay were each prepared in CAMHB and added to the 96-well broth microdilution assay plates. 50 μL of the BLI was added to each well of the assay plate in 2-fold dilutions with final concentrations ranging from 128 to 0.13 μg/mL. 25 μL of the β-lactam was added to all wells in the broth microdilution plates at a final concentration of 4 μg/mL. Inoculum cultures were prepared by standardizing the primary cultures to OD600=0.1 and then adding 20 μL of the adjusted primary culture per 1 mL CAMHB for clinical strains or CAMHB (supplemented with tetracycline at 100 μg/mL) for isogenic strains, so that the final inoculum density was ˜10^5 colony forming units per milliliter. Diluted inoculum cultures were used to inoculate 25 μL per well in 96-well broth microdilution assay plates. The final volume of each well was 100 μL and contained a BLI at different concentrations, a β-lactam at 4 μg/mL concentration, the bacterial culture at an OD600 of approximately 0.001 and when necessary tetracycline at 25 ug/mL.
as §5, with “sMIC” for “MIC”, “turbidity. […]” for “turbidity.”

[5] = system: Eco isogenic strain expressing P99; experiment: Synergy MIC (sMIC) assay; format: cell-based, Escherichia coli; settings: β-Lactam CXA-101 at 4 μg/mL
Experimental: as §7, §2, §8, §9
as §5, with “sMIC” for “MIC”, “turbidity. […]” for “turbidity.”

[6] = system: Eco isogenic strain expressing OXA-15; experiment: Synergy MIC (sMIC) assay; format: cell-based, Escherichia coli; settings: β-Lactam CXA-101 at 4 μg/mL; OXA-15, isogenic Eco
Experimental: as §7, §2, §8, §9
as §5, with “sMIC” for “MIC”, “turbidity. […]” for “turbidity.”

[7] = system: Eco isogenic strain expressing CTX-M-15; experiment: Synergy MIC (sMIC) assay; format: cell-based, Escherichia coli; settings: β-Lactam CXA-101 at 4 μg/mL; CTX-M-15, isogenic Eco
Experimental: as §7, §2, §8, §9
as §5, with “sMIC” for “MIC”, “turbidity. […]” for “turbidity.”

[8] = system: Eco isogenic strain, β-Lactamase none; experiment: Synergy MIC (sMIC) assay; format: cell-based, Escherichia coli; settings: β-Lactam none
Experimental: as §7, §2, §8, §9
as §5, with “sMIC” for “MIC”, “turbidity. […]” for “turbidity.”

[9] = system: Eco.2491 (CMY-2, clinical); experiment: Standard BLI Potentiation MIC Assay in Combination with Ceftolozane; format: cell-based, Escherichia coli; settings: Eco.2491, CMY-2, clinical; BLI at 4 μg/mL
Experimental: as §1, §2, §3, §4, §5

[10] = system: Eco.2845 (OXA-15, isogenic); experiment: as above; format: cell-based, Escherichia coli; settings: Eco.2845, OXA-15, isogenic; BLI at 4 μg/mL
Experimental: as §1, §2, §3, §4, §5

[11] = system: Eco.2843 (DHA-1, isogenic); experiment: as above; format: cell-based, Escherichia coli; settings: Eco.2843, DHA-1, isogenic; BLI at 4 μg/mL
Experimental: as §1, §2, §3, §4, §5

[12] = system: Panel of Isogenic and Clinical Strains Expressing β-Lactamases; experiment: Standard BLI Potentiation MIC Assay in Combination with Ceftolozane, whole panel; format: cell-based; settings: panel of 24 strains; BLI at 4 μg/mL
Experimental: as §1, §2, §3, §4
as §5, with “MIC values were defined as the lowest concentration producing no visible turbidity.” left out

Ecl.569 (AmpC, clinical) = experiment: Standard BLI Potentiation MIC Assay in Combination with Ceftolozane; format: cell-based, Enterobacter spp; settings: Ecl.569, AmpC, clinical; BLI at 4 μg/mL
Experimental: as §1, §2, §6
as §5, with “MIC values were defined as the lowest concentration producing no visible turbidity.” left out

(2S,5R)-2-(5-(3-aminopropyl)-1,3,4-oxadiazol-2-yl)-7-oxo-1,6-diazabicyclo[3.2.1]octan-6-yl hydrogen sulfate [ψ]
MIC of Ceftolozane in combination with BLI [1]: B (B = 1-2 μg/mL) | MIC of Ceftolozane in combination with BLI [2]: A (A = 0.25-0.5 μg/mL) | MIC of Ceftolozane in combination with BLI [3]: B (B = 1-2 μg/mL) | MIC of Ceftolozane in combination with BLI (Cfr.568 (AmpC, clinical)): A (A = 0.25-0.5 μg/mL) | sMIC [4]: B (B = 1-2 μg/mL) | sMIC [5]: B (B = 1-2 μg/mL) | sMIC [6]: B (B = 1-2 μg/mL) | sMIC [7]: A (A = 0.25-0.5 μg/mL) | sMIC [8]: D (D = 16-32 μg/mL) | MIC of Ceftolozane in combination with BLI [9]: AA (AA = <0.25 μg/mL) | MIC of Ceftolozane in combination with BLI [10]: B (B = 1-2 μg/mL) | MIC of Ceftolozane in combination with BLI [11]: AA (AA = <0.25 μg/mL) | MIC50 of Ceftolozane in combination with BLI [12]: A (A = 0.25-0.5 μg/mL) | MIC90 of Ceftolozane in combination with BLI [12]: B (B = 1-2 μg/mL) | MIC of Ceftolozane in combination with BLI (Ecl.569 (AmpC, clinical)): A (A = 0.25-0.5 μg/mL)
